Assay results reported in patent US4600788A, “4'-flavonecarboxylic acids and pharmaceutically acceptable derivatives their preparation, and their application” (Societe Cortial, S.A., priority 1983, dated 1986).
Structures can show the parent of a compound that is named as a salt. Each block holds one compound with its values, some of them ahead of it.

Key:
Toxicity in mice = type: in vivo; conditions: mouse, in vivo
aldose reductase = target: T1, aldose reductase (Bos taurus, UniProt P16116); test: Inhibition of aldose reductase in vitro (reduction of glyceraldehyde to glycerol, spectrophotometric NADPH determination); type: biochemical; conditions: enzyme from beef crystalline lens; substrate glyceraldehyde; read-out: log 1/CI50 (CI50 = concentration in mole/l resulting in 50% inhibition of the enzymatic activity) (converted)
T1 construct: The enzyme is extracted from beef crystalline lens; from tissue; host or cells: beef crystalline lens
Description: The enzyme is extracted from beef crystalline lens by the method described by Hayman S. and Kinoshita J. H. (J. Biol Chem., 1965, 240, 2,877). The percentage of inhibition of the capacity of the enzyme to reduce glyceraldehyde to glycerol under the effect of the product to be tested is determined by the spectrophotometric determination of the amount of NADPH reacting according to the method described by Hayman and Kinoshita. We give below in parentheses after each product the value of the log 1/CI50 where CI50 represents the concentration expressed in mole/l resulting in 50% inhibition of the enzymatic activity: COR 19 85 (4.9); COR 19 91 (5.5); COR 19 93 (5.1); COR 19 94 (5.2); COR 19 99 (5.4); COR 35 01 (6.9); COR 35 02 (5.15); COR 35 07 (6.3); COR 35 09 (5.7); COR 35 11 (5.9); COR 35 19 (5.8); COR 35 22 (5.2).

mice = test: Toxicity in mice; type: in vivo; conditions: for LD0: orally
rats [1] = test: Neuropathy with streptozotocin: sorbitol and inositol levels in sciatic nerves, glycemia; type: in vivo; conditions: 100 mg/kg/d
Description: Four batches of 10 rats weighing about 200 g were treated from D-2 to D+3 with a gummy julep of the product to be tested. On D O the animals received an i.p. injection of 100 mg/kg of streptozotocin dissolved in a citrate buffer. The glycemia of the rats was determined 24 hours and 3 days after injection of the streptozotocin and the sciatic nerves were removed to determine the sorbitol and inositol levels. […] COR 35 01 had no effect on the glycemia of the animals.

rats [2] = test: Diuretic activity, method of Lipschitz et coll.; type: in vivo; conditions: oral administration of 20 mg/kg
Description: Besides their advantage in curative and preventive therapy of complications from diabetes, the products, which are the object of this invention, are also useful as diuretics. Thus, product COR35 07, tested in rats according to the method of Lipschitz et coll.(J. Pharm. Exp. Therap., 1943, 79, 97-110), results in an increase in urinary excretion of sodium (natruria was multiplied by 2.6 after oral administration of 20 mg/kg).

rats [3] = test: Galactose cataracts: degree of cataract marked 0 to 3 by ophthalmoscope; type: in vivo; conditions: 20% galactose diet, 100 mg/kg d
Description: Rats, 14 days old, were kept in a cage of 11 with a mother for 3 days. From the 4th to the 9th day, the animals received the product to be tested or the reference product. At the end of pretreatment, the mothers were removed. Two out of the 11 animals were eliminated to obtain batches of homogenous weight. The selected rats were divided 3 by 3 into cages at random, and the diet containing 20% galactose was put in place. […] The degree of cataract was evaluated by a marking system from 0 to 3.
The marks given to the treated animals were compared with those of the control animals by the Mann and Whitney U test (D. Schwartz, "Statistical Methods for the Use of Physicians and Biologists," Ed. Flammarion, Paris, 1963).

SMILES: CCCc1c(-c2ccc(C(=O)OC)cc2)oc2cc(NC(=O)CN3CCOCC3)ccc2c1=O [COR35 17, methyl 7-(morpholinoacetamido)-3-propyl-4'-flavonecarboxylate]
mortality (Toxicity in mice; oral administration of 1000 mg/kg): 10%

SMILES: CC(=O)Nc1ccc2c(=O)cc(-c3ccc(C(=O)O)cc3)oc2c1 [COR 19 85, 7-acetamido-4'-flavonecarboxylic acid]
IC50 (aldose reductase): 12.6 µM

SMILES: CCCc1c(-c2ccc(C(=O)O)cc2)oc2cc(NC(C)=O)ccc2c1=O [COR 19 91, 7-acetamido-3-propyl-4'-flavonecarboxylic acid]
LD0 (mice): more than 2000 mg/kg
IC50 (aldose reductase): 3.16 µM

SMILES: CCc1c(-c2ccc(C(=O)O)cc2)oc2cc(NC(C)=O)ccc2c1=O [COR 19 93, 7-acetamido-3-ethyl-4'-flavonecarboxylic acid]
IC50 (aldose reductase): 7.94 µM

SMILES: CC(=O)Nc1ccc2c(=O)c(OC(C)=O)c(-c3ccc(C(=O)O)cc3)oc2c1 [COR 19 94, 7-Acetamido-3-acetoxy-4'-flavonecarboxylic acid]
LD0 (mice): more than 2000 mg/kg
IC50 (aldose reductase): 6.31 µM

SMILES: CCCc1c(-c2ccc(C(=O)OC)cc2)oc2cc(NS(C)(=O)=O)ccc2c1=O [COR 19 99, methyl 7-methanesulfonamido-3-propyl-4'-flavonecarboxylate]
IC50 (aldose reductase): 3.98 µM

SMILES: CCCc1c(-c2ccc(C(=O)O)cc2)oc2cc(NS(C)(=O)=O)ccc2c1=O [COR 35 01, 7-methanesulfonamido-3-propyl-4'-flavonecarboxylic acid]
mortality (mice; intraperitoneally, 250 mg/kg): did not cause any mortality
LD0 (mice): more than 2000 mg/kg
mortality (Toxicity in mice; ip, intraperitoneally, 500 mg/kg): 20%
sorbitol level in the sciatic nerves (rats [1]; D-2 to D+3, control 0.983±0.334): 0.426 ± 0.171 mg/kg
inositol level in the sciatic nerves (rats [1]; D-2 to D+3, control 1.6555±0.372): 1.184 ± 0.340 mg/kg
IC50 (aldose reductase): 0.126 µM

Continued, in another order:

IC50 (aldose reductase): 7.08 µM
SMILES: CCCc1c(-c2ccc(C(=O)O)cc2)oc2cc(NC(=O)CN3CCOCC3)ccc2c1=O [COR 35 02, 7-morpholinoacetamido-3-propyl-4'-flavonecarboxylic acid hydrochloride]

IC50 (aldose reductase): 0.501 µM
SMILES: COC(=O)c1ccc(-c2oc3cc(NS(C)(=O)=O)ccc3c(=O)c2OS(C)(=O)=O)cc1 [COR 35 07, methyl 7-methanesulfonamido-3-methanesulfonyloxy-4'-flavonecarboxylate]
natruria multiplied by (increase in urinary excretion of sodium) (rats [2]): 2.6

IC50 (aldose reductase): 2 µM
SMILES: CCCc1c(-c2ccc(C(=O)O)cc2)oc2cc(S(=O)(=O)N(C)C)ccc2c1=O [COR 35 09, N,N-7-dimethylsulfamoyl-3-propyl-4'-flavonecarboxylic acid]
galactose cataract average index D + 1 (rats [3]; D+1, marks 0 to 3): 0.0
galactose cataract average index D + 2 (rats [3]; D+2, marks 0 to 3): 0.0
galactose cataract average index D + 3 (rats [3]; D+3, marks 0 to 3): 0.031
galactose cataract average index D + 4 (rats [3]; D+4, marks 0 to 3, S): 0.47
galactose cataract average index D + 5 (rats [3]; D+5, marks 0 to 3, S): 0.97
galactose cataract average index D + 6 (rats [3]; D+6, marks 0 to 3, S): 1.44
galactose cataract average index D + 7 (rats [3]; D+7, marks 0 to 3, S): 1.69
galactose cataract average index D + 8 (rats [3]; D+8, marks 0 to 3, S): 1.81
galactose cataract average index D + 9 (rats [3]; D+9, marks 0 to 3, S): 2.06
galactose cataract average index D + 10 (rats [3]; D+10, marks 0 to 3, S): 1.88
galactose cataract average index D + 11 (rats [3]; D+11, marks 0 to 3, S): 1.69
galactose cataract average index D + 12 (rats [3]; D+12, marks 0 to 3, S): 1.81
galactose cataract average index D + 13 (rats [3]; D+13, marks 0 to 3, S): 1.50

IC50 (aldose reductase): 1.26 µM
SMILES: CCCc1c(-c2ccc(C(=O)O)cc2)oc2cc(S(=O)(=O)NC)ccc2c1=O [COR 35 11, N-7-methylsulfamoyl-3-propyl-4'-flavonecarboxylic acid]

IC50 (aldose reductase): 1.58 µM
SMILES: CCCc1c(-c2ccc(C(=O)O)cc2)oc2cc(S(=O)(=O)N(C)CCO)ccc2c1=O [COR 35 19, 7-(N-hydroxyethyl N-methylsulfamoyl)-3-propyl-4'-flavonecarboxylic acid]

IC50 (aldose reductase): 6.31 µM
SMILES: CCCc1c(-c2ccc(C(=O)O)cc2)oc2cc(S(N)(=O)=O)ccc2c1=O [COR 35 22, 7-sulfamoyl-3-propyl-4'-flavonecarboxylic acid]
